Patent US11098040B2, “Compounds and methods of use” (Ferro Therapeutics, Inc., priority 2018, dated 2021)
Read-outs that look alike come from different tables or passages of the source.

Experiments:
786-O = assay: Cell proliferation (Alamar Blue) assay, 786-O renal cell carcinoma, with/without ferrostatin; format: cell-based; conditions: Homo sapiens
Method in brief: (§1)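 Cells seeded at 5000/well, 16-24 h, then exposed 24 h at 37° C to compound, 10-0.0005 μM in 3-fold dilutions, 1% DMSO final. Alamar Blue fluorescence (ex 540/em 590 nm) read after 1.5 h; IC50 from variable-slope sigmoidal fit.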

SJSA-1 = assay: Cell proliferation (Alamar Blue) assay, SJSA-1 osteosarcoma, with/without ferrostatin; format: cell-based, human; conditions: Homo sapiens
Method in brief: as §1

A431 = assay: Cell proliferation (Alamar Blue) assay, A431; format: cell-based; conditions: Homo sapiens, A-431; Cell Line A431
Description: Cells (SJSA-1, 786-O and A431) were seeded (5000 cells/100 μL/well) in 96-well tissue culture plate and incubated at 37° C./5% CO2 for 16-24 hours. The cells were then treated with compounds (25 μL of 5×). The compound concentrations were 10-0.0005 μM prepared in 3-fold serial dilutions with final DMSO concentration of 1%. The plates were then incubated for 24 h at 37° C./5% CO2 in a moist environment. Then Alamar Blue™ reagent (final concentration 1×-12.5 μL) was added to each well and incubated for 1.5 hours at 37° C./5% CO2. The plates were read on fluorescence reader at 540 nm excitation and 590 nm emission wavelengths. The IC50 values were subsequently determined using a sigmoidal dose-response curve (variable slope) in GraphPad Prism® 5 software.
The cell proliferation assays for the compounds shown Table 25 was performed according to the protocols described herein, including Examples 4 and 6.

MiaPaCa-2 = assay: Cell viability assay (CellTiter Glo), pancreatic carcinoma MiaPaCa-2; format: cell-based; conditions: Homo sapiens
Description: (§2) Cell viability assay was performed to assess the potency of the compounds in human cancer cell lines KP4 (pancreatic ductal adenocarcinoma), MiaPaCa-2 (pancreatic carcinoma), AsPC-1 (pancreatic adenocarcinoma, ascites), 143B (osteosarcoma), and SJSA-1 (osteosarcoma). Selected compounds were also assayed in a human breast epithelial cell line MCF-10A, a nontumorigenic cell line as a control to assess differential activity. Cells at a density of 500-5,000 cells/well were seeded in 96-well plates and incubated at 37° C. overnight. A series of 9 different concentrations of compound stocks (500×) were created by 3-fold serial dilution in DMSO. These compounds were further diluted in culture media and then added to cells so that the final DMSO concentration was equal to 0.25% or less. After 96 hours of incubation, 50 μL of CellTiter Glo reagent (Promega) was added to each well and luminescence was measured after 10 minutes using EnVision (PerkinElmer). Compounds titrated from top concentration of up to 30 μM. The select compounds were tested initially from 30 μM as the top concentration in duplicates (range of 4.6 nM-30 μM). […] Luminescence from cells treated with DMSO alone was set as Max and % of inhibition was calculated as follows: Inhibition %=(Max-Sample value)/Max*100. Data was analyzed using XL-fit software (ID Business Solutions Ltd.). IC50, relative IC50, or % of top inhibition was calculated.
The results of the assay in the pancreatic cell lines are given in Table 15a for PANC1, Table 15b for MiaPaCa-2, and Table 15c for AsPC-1.

KP4 = assay: Cell viability assay (CellTiter Glo), pancreatic ductal adenocarcinoma KP4; format: cell-based, human; conditions: Homo sapiens
Method in brief: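 KP4 cells seeded at 1,000–10,000 per well, treated 96 h with 9-point 3-fold dilutions from 30 μM top (4.6 nM–30 μM, duplicates; ≤0.25% DMSO). Viability by CellTiter Glo luminescence; % inhibition relative to DMSO-only wells, giving IC50, relative IC50 or % top inhibition.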

A549 = assay: Cell viability assay, A549 cells; format: cell-based; conditions: Homo sapiens
Method in brief: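 Growth of A549 cells was assessed with a cell viability assay. Cells were plated at 1,000-10,000 cells/well in 96-well plates and incubated overnight at 37° C. Nine-point 3-fold DMSO dilutions, starting from 30 μM and run in duplicate, were diluted into media (final DMSO 0.25% or less). After 96 hours, CellTiter Glo luminescence was read, inhibition was calculated against DMSO controls, and IC50 was fitted in XL-fit.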

[1] = Whole blood stability, mouse; format: in vitro ADME
From the text: (§3) The results of the assay on stability in blood and IC50 values for pancreatic cancer cell line KP4 are given below in Table 24.

[2] = Whole blood stability, human; format: in vitro ADME
From the text: as §3

MCF-10A = assay: Cell viability assay (CellTiter Glo), non-tumorigenic breast epithelial cell line MCF-10A; format: cell-based; conditions: Homo sapiens, 96 hours
Description: as §2
Paclitaxel was used as the positive control for cytotoxicity.

[3] = 786-0, Cell Line 786-O, read-out: IC50
[4] = SJSA-1, Cell Line SJSA-1, read-out: IC50
[5] = MIA PaCa-2, pancreatic carcinoma, 96 hours, CellTiter Glo, read-out: IC50 MiaPaCa-2
[6] = Cell Line Mia PaCa-2, read-out: IC50
[7] = KP-4, Cell Line KP4, read-out: IC50
[8] = A549, Cell Line A549, read-out: IC50

Row | SMILES | IC50 (SJSA-1; [4]) [µM] | IC50 (A431) [µM] | IC50 (MiaPaCa-2; [5]) [µM] | other results
1 | C[C@H]1Cc2c([nH]c3ccccc23)[C@H](c2ccc(C(=O)Nc3ccccn3)cc2)N1C(=O)CCl (single isomer, unassigned) [Compound 219] | 0.036 | 1.9 | – | IC50 (786-O; [3]): 0.051 µM
2 | C[C@H]1Cc2c([nH]c3ccc(F)cc23)[C@H](c2ccc(S(=O)(=O)NC3CC3)cc2F)N1C(=O)CCl (stereo in doubt) [Compound 164, 4-((1S,3S)-2-(2-chloroacetyl)-6-fluoro-3-methyl-2,3,4,9-tetrahydro-1H-pyrido[3,4-b]indol-1-yl)-N-cyclopropyl-3-fluorobenzenesulfonamide] | 0.013 | 9.94 | – | IC50 (786-O; 786-0, 24 h, Alamar Blue, 24 h, 2 μM ferrostatin, read-out: 786-O (IC50, μM) 2 μM Ferrostatin): 6.34 µM; IC50 (786-O; 786-0, 24 h, Alamar Blue, 24 h, without ferrostatin, read-out: 786-O (IC50, μM) Without Ferrostatin): 0.023 µM; IC50 (786-O; [3]): 0.023 µM; IC50 (SJSA-1; SJSA-1, 24 h, Alamar Blue, 24 h, 2 μM ferrostatin, read-out: SJSA-1 (IC50, μM) 2 μM Ferrostatin): 7.06 µM; IC50 (SJSA-1; SJSA-1, 24 h, Alamar Blue, 24 h, without ferrostatin, read-out: SJSA-1 (IC50, μM) Without Ferrostatin): 0.013 µM
3 | COC(=O)[C@H]1Cc2c([nH]c3ccccc23)[C@H](c2ccc(C(=O)OC(C)(C)C)cc2)N1C(=O)C(Cl)Cl [Compound 263] | – | – | 5.57 | IC50 (MiaPaCa-2; [6]): 5.57 µM; IC50 (KP4; [7]): 10.4 µM; IC50 (A549; [8]): 6.22 µM
4 | COC(=O)c1ccc([C@H]2c3[nH]c4ccccc4c3C[C@H](C(=O)OC)N2C(=O)/C=C/CN(C)C)cc1 [Compound 273] | – | – | – | IC50 (MiaPaCa-2; [6]): 0.01 µM; IC50 (KP4; [7]): 1.71 µM; IC50 (A549; [8]): 3.23 µM
5 | COC(=O)[C@H]1Cc2c([nH]c3ccccc23)[C@@H](c2ccc(S(=O)(=O)N(C)C)cc2)N1C(=O)CCl [Example 23a] | – | – | 3.15 | –
6 | COC(=O)[C@H]1Cc2c([nH]c3ccccc23)[C@H](c2ccc(C(=O)OC(C)(C)C)cc2)N1C(=O)/C=C/CCl [Example 25] | – | – | 0.858 | –
7 | COC(=O)[C@H]1Cc2c([nH]c3ccccc23)[C@@H](c2ccc(C(=O)NCCN3CCOCC3)cc2)N1C(=O)CCl [Example 27a] | – | – | 3 | IC50 (KP4; KP-4, 96 h, pancreatic cancer cell line KP4, 96 hours, CellTiter Glo, read-out: IC50 μM KP4): 0.1 to 0.5 µM; Whole Blood Stability % Remaining at 37° C. Mouse ([1]; 0 min): 100.0%; Whole Blood Stability % Remaining at 37° C. Mouse ([1]; 30 min): 92.5%; Whole Blood Stability % Remaining at 37° C. Mouse ([1]; 60 min): 81.1%; Whole Blood Stability % Remaining at 37° C. Human ([2]; 0 min): 100.0%; Whole Blood Stability % Remaining at 37° C. Human ([2]; 30 min): 54.1%; Whole Blood Stability % Remaining at 37° C. Human ([2]; 60 min): 40.9%
8 | CN(C)C(=O)c1ccc([C@H]2c3[nH]c4ccccc4c3C[C@H](C(=O)N(C)C)N2C(=O)CCl)cc1 [Example 38] | – | – | 3.63 | IC50 (MCF-10A): 19.6 µM
9 | COC(=O)C1CCC([C@H]2c3[nH]c4ccccc4c3C[C@H](C(=O)N(C)C)N2C(=O)CCl)CC1 (stereo partly drawn) [Example 41] | – | – | 0.04 | IC50 (MCF-10A): 0.04 µM
10 | COCCN(C(=O)c1ccc([C@H]2c3[nH]c4ccccc4c3C[C@H](C(=O)N(C)C)N2C(=O)CCl)cc1)C(C)(C)C [Example 52] | – | – | 0.243 | IC50 (MCF-10A): 0.18 µM; IC50 (A549; A549, A549, read-out: IC50 for A549): 0.28 to 0.36 µM
11 | CN(C)C(=O)[C@H]1Cc2c([nH]c3ccccc23)[C@H](c2ccc(C(=O)N(CCC(=O)OC(C)(C)C)C(C)(C)C)cc2)N1C(=O)CCl [Example 54] | – | – | 0.217 | IC50 (MCF-10A): 0.56 µM; IC50 (A549; A549, A549, unit printed as PM, read-out: IC50 for A549): 0.79 µM
12 | CN(C)C(=O)[C@H]1Cc2c([nH]c3ccccc23)[C@H](c2ccc(NC(=O)OC(C)(C)C)cc2)N1C(=O)CCl [Example 56] | – | – | 0.759 | IC50 (MCF-10A): 1.51 µM
13 | CN(C)C(=O)[C@H]1Cc2c([nH]c3ccccc23)[C@H](c2ccc(S(C)(=O)=O)cc2)N1C(=O)CCl [Example 59] | – | – | 0.591 | IC50 (MCF-10A): 8.78 µM
14 | CN(C)C(=O)[C@H]1Cc2c([nH]c3ccccc23)[C@H](c2ccc(C(=O)NC[Si](C)(C)C)cc2)N1C(=O)CCl [Example 66] | – | – | 0.159 | –
15 | CN(C)C(=O)[C@H]1Cc2c([nH]c3ccccc23)[C@@H](c2ccc([Si](C)(C)C)cc2)N1C(=O)CCl [Example 67a] | – | – | 1.36 | –
16 | C[C@H]1Cc2c([nH]c3ccccc23)C(c2ccc(S(N)(=O)=O)cc2)N1C(=O)CCl (stereo partly drawn) [Example 123] | 4.7 | 5.4 | – | –
17 | CC1CN(c2ccc([C@@H]3c4[nH]c5ccccc5c4C[C@H](C)N3C(=O)CCl)cc2)CCO1 (stereo partly drawn) [Example 127] | > 10 | 2.8 | – | –
18 | C[C@H]1Cc2c([nH]c3ccccc23)[C@H](c2cnn(C3CCOCC3)c2)N1C(=O)CCl [Example 158] | 1.4 | > 10 | – | –
19 | C[C@H]1Cc2c([nH]c3ccccc23)[C@@H](c2cnn(C3CCOCC3)c2)N1C(=O)CCl [Example 159] | > 10 | 7 | – | –
20 | C[C@H]1Cc2c([nH]c3ccccc23)[C@H](c2ccncc2)N1C(=O)CCl [Example 171] | 0.254 | 8.11 | – | –
21 | C#CC(=O)N1[C@@H](c2ccc(S(=O)(=O)NC3CC3)cc2F)c2[nH]c3ccccc3c2C[C@@H]1C [Example 174] | 0.091 | 2.99 | – | –
22 | CCS(=O)(=O)N1CCN(c2ccc([C@H]3c4[nH]c5ccccc5c4C[C@H](C)N3C(=O)CCl)cc2)CC1 [Example 209] | 0.019 | 3.28 | – | –
23 | C#CCOc1ccc2[nH]c3c(c2c1)C[C@H](C(=O)OC)N(C(=O)CCl)[C@H]3c1ccc(C(=O)NC23CC4CC(CC(C4)C2)C3)cc1 [Example 211] | 0.011 | 2.73 | – | –
24 | CC1CN(c2ccc([C@H]3c4[nH]c5ccccc5c4C[C@H](C)N3C(=O)CCl)cc2)CC(C)O1 (stereo partly drawn) [Example 212] | – | 2.51 | – | IC50 (786-O; [3]): 0.008 µM
25 | C[C@H]1Cc2c([nH]c3ccccc23)[C@H](c2ccc(N3CCOCC3)nc2)N1C(=O)CCl [Example 220] | 0.093 | 10 | – | –
26 | COC(=O)[C@H]1Cc2c([nH]c3ccccc23)[C@H](c2ccc(O)cc2)N1C(=O)CCl [Example 265] | – | – | 0.246 | IC50 (MiaPaCa-2; [6]): 0.26 µM; IC50 (KP4; [7]): 0.16 µM
